Experimental data as given in ChEMBL document CHEMBL5376002, “A Hybrid Antimicrobial Peptide Targeting Staphylococcus aureus with a Dual Function of Inhibiting Quorum Sensing Signaling and an Antibacterial Effect” (J Med Chem, 2023).
Values after ≈ are worked out from the molar mass of the structure shown. Active and inactive are the calls of the source. The calls are words filed in the database; no cut-off is given here. Numbered stars: 1 amine (or outer) side, 2 acyl side, 3 side chain; on linkers, the order of the positions; unused ones are H or OH. Bridge positions count the residues as written; N and C are the ends. Square brackets hold non-standard residues; d marks the D form. Peptide text beside a SMILES is read from it. I, II: the chains in the order shown. X1 = O=C1CC([*:2])C(=O)N1CCCCCC(=O)[*:1]; Dab = NCC[C@H](N)C(=O)O

Experiments:
Staphylococcus aureus [1] = assay: Antibacterial activity against Staphylococcus aureus ATCC 6538p assessed as inhibition of bacterial growth incubated for 18 to 24 hrs; type: functional; conditions: time 18-24 hrs
Staphylococcus aureus [2] = assay: Bactericidal activity against Staphylococcus aureus ATCC 6538p assessed as inhibition of bacterial growth incubated for 18 to 24 hrs; type: functional; conditions: time 18-24 hrs
Staphylococcus aureus [3] = assay: Antibacterial activity against Staphylococcus aureus ATCC 12600 assessed as inhibition of bacterial growth incubated for 18 to 24 hrs; type: functional; conditions: time 18-24 hrs
Staphylococcus aureus [4] = assay: Bactericidal activity against Staphylococcus aureus ATCC 12600 assessed as inhibition of bacterial growth incubated for 18 to 24 hrs; type: functional; conditions: time 18-24 hrs
Staphylococcus aureus [5] = assay: Antibacterial activity against Staphylococcus aureus ATCC 43300 assessed as inhibition of bacterial growth incubated for 18 to 24 hrs; type: functional; conditions: time 18-24 hrs
[6] = system: Staphylococcus epidermidis; assay: Antibacterial activity against Staphylococcus epidermidis ATCC 12228 assessed as inhibition of bacterial growth incubated for 18 to 24 hrs; type: functional; conditions: time 18-24 hrs
[7] = system: Staphylococcus epidermidis; assay: Bactericidal activity against Staphylococcus epidermidis ATCC 12228 assessed as inhibition of bacterial growth incubated for 18 to 24 hrs; type: functional; conditions: time 18-24 hrs
Streptococcus pneumoniae [8] = assay: Antibacterial activity against Streptococcus pneumoniae ATCC 49619 assessed as inhibition of bacterial growth incubated for 18 to 24 hrs; type: functional; conditions: time 18-24 hrs
Streptococcus pneumoniae [9] = assay: Bactericidal activity against Streptococcus pneumoniae ATCC 49619 assessed as inhibition of bacterial growth incubated for 18 to 24 hrs; type: functional; conditions: time 18-24 hrs
[10] = system: Staphylococcus saprophyticus; assay: Antibacterial activity against Staphylococcus saprophyticus ATCC BAA-750 assessed as inhibition of bacterial growth incubated for 18 to 24 hrs; type: functional; conditions: time 18-24 hrs
[11] = system: Staphylococcus saprophyticus; assay: Bactericidal activity against Staphylococcus saprophyticus ATCC BAA-750 assessed as inhibition of bacterial growth incubated for 18 to 24 hrs; type: functional; conditions: time 18-24 hrs
Streptococcus mutans [12] = assay: Antibacterial activity against Streptococcus mutans UA159 assessed as inhibition of bacterial growth incubated for 18 to 24 hrs; type: functional; conditions: time 18-24 hrs
Streptococcus mutans [13] = assay: Bactericidal activity against Streptococcus mutans UA159 assessed as inhibition of bacterial growth incubated for 18 to 24 hrs; type: functional; conditions: time 18-24 hrs
Streptococcus mutans [14] = assay: Antibacterial activity against Streptococcus mutans ATCC 25175 assessed as inhibition of bacterial growth incubated for 18 to 24 hrs; type: functional; conditions: time 18-24 hrs
Streptococcus mutans [15] = assay: Bactericidal activity against Streptococcus mutans ATCC 25175 assessed as inhibition of bacterial growth incubated for 18 to 24 hrs; type: functional; conditions: time 18-24 hrs
Escherichia coli [16] = assay: Antibacterial activity against Escherichia coli ATCC 25922 assessed as inhibition of bacterial growth incubated for 18 to 24 hrs; type: functional; conditions: time 18-24 hrs
Staphylococcus aureus [17] = assay: Bactericidal activity against Staphylococcus aureus ATCC 43300 assessed as inhibition of bacterial growth incubated for 18 to 24 hrs; type: functional; conditions: time 18-24 hrs
Escherichia coli [18] = assay: Bactericidal activity against Escherichia coli ATCC 25922 assessed as inhibition of bacterial growth incubated for 18 to 24 hrs; type: functional; conditions: time 18-24 hrs
Staphylococcus aureus [19] = assay: Antivirulence activity against Staphylococcus aureus assessed as downregulation of RNAIII expression level at 1 to 100 uM incubated for 24 hrs by qRT-PCR analysis; type: functional, organism-based; conditions: dose 1-100 µM
Staphylococcus aureus [20] = assay: Antivirulence activity against Staphylococcus aureus assessed as downregulation of hla expression level at 1 to 100 uM incubated for 24 hrs by qRT-PCR analysis; type: functional, organism-based; conditions: dose 1-100 µM
Staphylococcus aureus [21] = assay: Antivirulence activity against Staphylococcus aureus assessed as downregulation of psm-alpha expression level at 1 to 100 uM incubated for 24 hrs by qRT-PCR analysis; type: functional, organism-based; conditions: dose 1-100 µM
Erythrocyte = assay: Hemolytic activity in rat RBC assessed as hemolysis measured after 20 hrs; type: toxicity, cell-based
Staphylococcus aureus [22] = assay: Inhibition of biofilm formation in Staphylococcus aureus at 0.78 to 1.56 uM incubated for 24 hrs by crystal violet staining based analysis; type: functional, organism-based; conditions: dose 0.78-1.56 µM
RAW264.7 = assay: Cytotoxicity against mouse RAW264.7 cells assessed as cell viability incubated for 48 hrs by MTT assay; type: functional

MIC (Staphylococcus aureus [1]) [µM] | MIC (Staphylococcus aureus [3]) [µM] | MIC (Staphylococcus aureus [5]) [µM] | MIC [6] [µM] | MIC (Streptococcus pneumoniae [8]) [µM] | MIC [10] [µM] | MIC (Streptococcus mutans [12]) [µM] | MIC (Streptococcus mutans [14]) [µM] | MIC (Escherichia coli [16]) [µM] | Molecule | MBC (Staphylococcus aureus [2]) [µM] | MBC (Staphylococcus aureus [4]) [µM] | MBC [7] [µM] | MBC (Streptococcus pneumoniae [9]) [µM] | MBC [11] [µM] | MBC (Streptococcus mutans [13]) [µM] | MBC (Streptococcus mutans [15]) [µM] | MBC (Staphylococcus aureus [17]) [µM] | MBC (Escherichia coli [18]) [µM] | further results
0.1 (≈ 0.0349 µg/mL) | 0.1 (≈ 0.0349 µg/mL) | > 100 | 0.39 (≈ 0.136 µg/mL) | 0.78 (≈ 0.273 µg/mL) | 1.56 (≈ 0.545 µg/mL) | 12.5 (≈ 4.37 µg/mL) | 6.25 (≈ 2.18 µg/mL) | > 100 | CC1(C)S[C@@H]2[C@H](NC(=O)[C@H](N)c3ccccc3)C(=O)N2[C@H]1C(=O)O [AMPICILLIN] | 0.19 (≈ 0.0664 µg/mL) | 0.19 (≈ 0.0664 µg/mL) | 0.39 (≈ 0.136 µg/mL) | 0.78 (≈ 0.273 µg/mL) | 1.56 (≈ 0.545 µg/mL) | 12.5 (≈ 4.37 µg/mL) | 6.25 (≈ 2.18 µg/mL) |  |  | 
6.25 (≈ 17.9 µg/mL) | 6.25 (≈ 17.9 µg/mL) | 6.25 (≈ 17.9 µg/mL) | 3.13 (≈ 8.96 µg/mL) | 12.5 (≈ 35.8 µg/mL) | 6.25 (≈ 17.9 µg/mL) | 6.25 (≈ 17.9 µg/mL) | 3.13 (≈ 8.96 µg/mL) | 6.25 (≈ 17.9 µg/mL) | CC[C@H](C)[C@H](NC(=O)CNC(=O)CCCCCN1C(=O)CC(SC[C@H](N)C(=O)NCC(=O)NCC(=O)N[C@H](C(=O)N[C@@H](CC(N)=O)C(=O)N[C@H]2CCNC(=O)[C@H](CC(C)C)NC(=O)[C@H](CC(C)C)NC(=O)[C@H](Cc3ccccc3)NC(=O)[C@H](C)NC2=O)[C@@H](C)CC)C1=O)C(=O)N[C@@H](CCCCN)C(=O)N[C@@H](CC(N)=O)C(=O)N[C@@H](C)C(=O)N[C@@H](Cc1c[nH]c2ccccc12)C(=O)N[C@@H](CCCCN)C(=O)N[C@@H](C)C(=O)N[C@@H](CCSC)C(=O)N[C@H](C(=O)N[C@@H](CCCCN)C(=O)N[C@@H](C)C(=O)N[C@@H](Cc1c[nH]c2ccccc12)C(=O)N[C@@H](Cc1ccc(O)cc1)C(=O)O)[C@@H](C)CC (stereo partly drawn) (I: GIKNAWKAMIKAWY-OH / II: H-CGGIN[Dab]AFLL; linker I:N-II:1 via X1; lactam II:6-II:C) | 6.25 (≈ 17.9 µg/mL) | 6.25 (≈ 17.9 µg/mL) | 6.13 (≈ 17.5 µg/mL) | 12.5 (≈ 35.8 µg/mL) | 12.5 (≈ 35.8 µg/mL) | 12.5 (≈ 35.8 µg/mL) | 3.13 (≈ 8.96 µg/mL) | 12.5 (≈ 35.8 µg/mL) | 6.25 (≈ 17.9 µg/mL) | CC50 (RAW264.7): 105 µM

Molecule | MIC (Staphylococcus aureus [1]) [µM] | MIC (Staphylococcus aureus [3]) [µM] | MIC (Staphylococcus aureus [5]) [µM] | MIC [6] [µM] | MIC (Streptococcus pneumoniae [8]) [µM] | MIC [10] [µM] | MIC (Streptococcus mutans [12]) [µM] | MIC (Streptococcus mutans [14]) [µM] | MIC (Escherichia coli [16]) [µM] | MBC (Staphylococcus aureus [2]) [µM] | MBC (Staphylococcus aureus [4]) [µM] | MBC [7] [µM] | MBC (Streptococcus pneumoniae [9]) [µM] | MBC [11] [µM] | MBC (Streptococcus mutans [13]) [µM] | MBC (Streptococcus mutans [15]) [µM] | MBC (Staphylococcus aureus [17]) [µM] | MBC (Escherichia coli [18]) [µM] | further results
H-LGAKAGGGIKNLWKKMIKLWY-OH | 3.13 | 3.13 | 6.25 | 1.56 | 6.25 | 3.13 | 6.25 | 3.13 | 6.25 | 3.13 | 3.13 | 3.13 | 25 | 6.25 | 6.25 | 3.13 | 6.25 | 12.5 | Activity (Staphylococcus aureus [19]): inactive; Activity (Staphylococcus aureus [20]): inactive; Activity (Staphylococcus aureus [21]): inactive; Activity (Erythrocyte): Non-Toxic; inhibition (Staphylococcus aureus [22]): Active
